Assay results reported in patent US20180185309A1, “METHODS AND COMPOSITIONS FOR TREATING NEPHROPATHY” (The Regents of the University of California, priority 2015, published 2018).

Assays:
[1] = chemical chaperones that inhibit ER stress; cited from earlier work
[2] = target: T1, sEH (Homo sapiens, UniProt P34913); assay: sEH inhibition, assay not specified; type: biochemical
T1 sequence (P34913 1-555): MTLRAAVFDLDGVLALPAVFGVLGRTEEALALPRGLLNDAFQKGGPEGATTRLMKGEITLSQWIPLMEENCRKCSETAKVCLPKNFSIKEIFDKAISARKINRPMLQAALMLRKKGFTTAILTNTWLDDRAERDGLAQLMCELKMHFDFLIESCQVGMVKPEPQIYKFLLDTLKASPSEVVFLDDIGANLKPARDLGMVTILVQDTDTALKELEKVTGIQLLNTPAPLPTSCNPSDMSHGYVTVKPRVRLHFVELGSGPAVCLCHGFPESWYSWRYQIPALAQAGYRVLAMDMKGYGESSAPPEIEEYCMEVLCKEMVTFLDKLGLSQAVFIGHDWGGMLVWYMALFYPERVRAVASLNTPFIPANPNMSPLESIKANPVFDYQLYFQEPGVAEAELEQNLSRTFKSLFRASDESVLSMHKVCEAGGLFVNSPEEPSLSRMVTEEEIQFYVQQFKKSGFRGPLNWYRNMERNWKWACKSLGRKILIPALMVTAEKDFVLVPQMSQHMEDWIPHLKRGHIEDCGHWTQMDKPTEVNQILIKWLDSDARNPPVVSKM
Excerpt: “Soluble epoxide hydrolase” (“sEH”) is an epoxide hydrolase which in endothelial and smooth muscle cells converts EETs to dihydroxy derivatives called dihydroxyeicosatrienoic acids (“DHETs”). The cloning and sequence of the murine sEH is set forth in Grant et al., J. Biol. Chem. 268(23):17628-17633 (1993). The cloning, sequence, and accession numbers of the human sEH sequence are set forth in Beetham et al., Arch. Biochem. Biophys. 305(1):197-201 (1993). The amino acid sequence of human sEH is SEQ ID NO.:1, while the nucleic acid sequence encoding the human sEH is SEQ ID NO.:2. (The sequence set forth as SEQ ID NO.:2 is the coding portion of the sequence set forth in the Beetham et al. 1993 paper and in the NCBI Entrez Nucleotide Browser at accession number L05779, which include the 5′ untranslated region and the 3′ untranslated region.) The evolution and nomenclature of the gene is discussed in Beetham et al., DNA Cell Biol. 14(1):61-71 (1995). Soluble epoxide hydrolase represents a single highly conserved gene product with over 90% homology between rodent and human (Arand et al., FEBS Lett., 338:251-256 (1994)). Unless otherwise specified, as used herein, the terms “soluble epoxide hydrolase” and “sEH” refer to human sEH. […]

[3] = Metabolic stability, method not specified; type: in vitro ADME

Row | activity on sEH [2] | metabolic stability [3] | Structure (SMILES) | DN disease progression [1]
1 | – | – | C[C@H](CCC(=O)NCCS(=O)(=O)O)[C@H]1CC[C@H]2[C@@H]3[C@@H](O)C[C@@H]4C[C@H](O)CC[C@]4(C)[C@H]3CC[C@]12C [TUDCA, tauroursodeoxycholic acid] | slow DN disease progression
2 | – | – | O=C(O)CCCc1ccccc1 [4-PBA, 4-phenyl butyric acid] | slow DN disease progression
3 | particularly high activity | metabolically stable | CCCCCCCCCCCCNC(=O)NC12CC3CC(CC(C3)C1)C2 [ADU, N-Adamantyl-N′-dodecyl urea] | –
